Laboratory results taken from patent US20220369641A1, “MOLECULAR COMPLEXES” (priority 2019, published 2022).
≈ marks a conversion by molar mass, not a printed value. Blank lines part the entries; values can stand above or below the compound they belong to.

Columns and labels:
[1] = Thermodynamic (aqueous) solubility, 24 hours at 25° C., HPLC quantitation; assay type: physicochemical; conditions: for solubility thermodynamic at 24 h: thermodynamic from solid
Description: The suspension was equilibrated at 25° C., on a Heidolph plate shaker set to 750 rpm for 24 hours. The pH of the sample solutions was periodically checked and, if required, adjusted with 0.2M NaOH to ensure that the desired pH was maintained (±0.05) throughout. The pH of the saturated solution after this time was measured and the suspension filtered through a glass fibre C filter (particle retention 1.2 μm) and diluted appropriately.
Quantitation was by HPLC with reference to a standard solution of approximately 0.15 mg/ml in 1:1 MeCN/H2O. Different volumes of the standard, diluted and undiluted sample solutions were injected.
Different volumes of the standard, diluted and undiluted sample solutions were injected. The solubility was calculated using the peak areas determined by integration of the peak found at the same retention time as the principal peak in the standard injection.
Analysis was performed on an Agilent HP1100 series system equipped with a diode array detector and using ChemStation software.

[2] = Intrinsic dissolution rate (IDR), Sirius inForm, compressed discs; assay type: physicochemical; conditions: 37° C., pH 5.0 media, 1 hour, 6 mm disc
Description: IDR Method Ca. 40 mg material was compressed under 100 kg for 2 minutes to form non-disintegrating discs. The discs were then plugged with a bung so that only one surface was exposed to the media during analysis, and transferred to the dissolution apparatus (Sirius inForm). The volume of the assay was 40 ml and a stir speed of 225 rpm was used. Analysis was performed at 37° C. in pH 5.0 media for 1 hour with UV spectra collected every 30 seconds, using a 20 mm path length probe.

[3] = Media DI Water, pH 7.8, 25° C., 24 hours, final pH 5.24-5.42

- solubility thermodynamic at 24 h ([1]; pH 4.0 acetic acid/sodium acetate media, aqueous buffer, pH 4.0 media (42.4 ml 0.1 M acetic acid mixed with 7.6 ml 0.1 M sodium acetate), 25° C., 24 hours, read-out: Thermodynamic solubility of second component): > 13.8 mg/mL
Compound: COc1c(Cl)ccc(Cl)c1C(=O)O [Dicamba freeform, 3,6-Dichloro-2-methoxybenzoic acid]

Compound: Nc1c(Cl)c(F)nc(OCC(=O)O)c1Cl [Fluroxypyr freeform, Fluroxypyr]
- solubility thermodynamic at 24 h ([1]; 25 °C, pH 4.04, water): 0.29 mg/mL (≈ 1140 µM)
- IDR of second component [2]: 956.9 μg/min/cm^2

Compound: CCc1cc(C)cc(CC)c1-c1c(OC(=O)C(C)(C)C)n2n(c1=O)CCOCC2 [Pinoxaden freeform, [8-(2,6-diethyl-4-methylphenyl)-7-oxo-1,2,4,5-tetrahydropyrazolo[1,2-d][1,4,5]oxadiazepin-9-yl] 2,2-dimethylpropanoate]
- solubility thermodynamic at 24 h ([1]; aqueous buffer, pH 4.0 media (42.4 ml 0.1 M acetic acid mixed with 7.6 ml 0.1 M sodium acetate), 25° C., 24 hours, read-out: Thermodynamic solubility of pinoxaden component): 0.28 mg/mL (≈ 699 µM)
- solubility thermodynamic at 24 h ([1]; Media DI Water, 25° C., 24 hours, final pH 3.97-4.10, read-out: Thermodynamic solubility of pinoxaden component): ~0.23 mg/mL (≈ 574 µM)
- IDR of pinoxaden component [2]: 69.4 μg/min/cm^2

Compound: Pinoxaden:2,4-D (1:1) Molecular Complex [Example 3]
- Thermodynamic solubility of pinoxaden component [1, 3]: 0.20 mg/mL
- Thermodynamic solubility of second component [1, 3]: 0.12 mg/mL
